From patent US20080267882A1, “Imaging compounds, methods of making imaging compounds, methods of imaging, therapeutic compounds, methods of making therapeutic compounds, and methods of therapy” (Stanford University, priority 2007, published 2008)

Columns and labels:
[1] = literature; cited from earlier work
in vivo [2] = details: female, athymic nude, mouse, total radioactivity
Protocol: All mice were sacrificed and dissected at 20 h post-injection (p.i.) of the tracer. Blood, U87MG tumor, major organs and tissues were collected and wet weighed. The radioactivity in the tissue was measured using a γ-counter (Packard). The results were presented as percentage injected dose per gram of tissue (% ID/g).

in vivo [3] = details: c-neu oncomouse (MMTV/c-neu transgenic), mouse, iv, total radioactivity
Protocol: All animal experiments were performed under a protocol approved by Stanford's Administrative Panel on Laboratory Animal Care. […] The c-neu oncomouse (Charles River Laboratories, Charles River, Canada) is a spontaneous tumor-bearing model that carries an activated c-neu oncogene driven by a mouse mammary tumor virus (MMTV) promoter (Cell 1988;54:105-115, which is incorporated herein by reference for the corresponding discussion). Transgenic mice uniformly expressing the MMTV/c-neu gene develop mammary adenocarcinomas between 4 and 8 months postpartum that involve the entire epithelium in each gland. […] Each mouse was tail-vein injected with about 3.7 MBq (100 μCi) of ^18[…]2 under isoflurane anesthesia. The 30-min dynamic scan (1×30 s, 4×1 min, 1×1.5 min, 4×2 min, 1×2.5 min, 4×3 min, total of 15 frames) was started 1 min after injection. Five min static PET images were also acquired at 1 h and 2 h post-injection (p.i.). The images were reconstructed by a 2-dimensional ordered-subsets expectation maximum (OSEM) algorithm and no correction was applied for attenuation or scatter. […] Animal procedures were performed according to a protocol approved by the Stanford University Institutional Animal Care and Use Committee. […] The c-neu oncomouse (Charles River Laboratories, Charles River, Canada) is a spontaneous tumor-bearing model that carries an activated c-neu oncogene driven by a mouse mammary tumor virus (MMTV) promoter (Cell. 1988;54:105-115, which is incorporated herein by reference for the corresponding discussion). Transgenic mice uniformly expressing the MMTV/c-neu gene develop mammary adenocarcinomas between 4 and 8 months postpartum that involve the entire epithelium in each gland. […] PET scans and image analysis were performed using a microPET R4 rodent model scanner (Siemens Medical Solutions) as previously reported. […] Five min static PET images were also acquired at 1, 2, and 3 h p.i. The images were reconstructed by 2-dimensional ordered-subsets expectation maximum (OSEM) algorithm. No attenuation or scatter correction was applied. […] The 5-min static PET scans was then acquired at 30 min and 1 h p.i. […] Animal procedures were performed according to a protocol approved by Stanford University Institutional Animal Care and Use Committee. […] Transgenic mice uniformly expressing the MMTV/c-neu gene develop mammary adenocarcinomas (4 to 8 months postpartum) that involve the entire epithelium in each gland. […] Five minute static scans were acquired at 30 min, 1 h, 2 h, 6 h, and 20 h p.i. […] The radioactivity concentration (accumulation) within a tumor was obtained from the maximum value within the multiple ROIs and then converted to % ID/g.

[4] = tested on: rat myocardial infarction; assay: microPET imaging of rat myocardial infarction; assay type: in vivo; details: scan 1 h after injection
Excerpt: Induction of MI was done as previously described by our laboratory. Adult female Sprague-Dawley rats (weight 150-200 g; Charles River Laboratories, Wilmington, Mass.) were used for this study. […] The anesthesia was then maintained with isoflurane (2%). MI was induced by ligation of the left anterior descending coronary artery 2 to 3 mm from the tip of the left auricle with a 7-0 polypropylene suture. […] In the sham operated animals, a suture was placed in the myocardium (without ligating the left coronary artery). Animals were anesthetized with isofluorane (2%) and injected with approximately 1 mCi (37 MBq) of ^64Cu-DOTA-[…]2) via the tail vein and allowed to recover. […] At the time of scanning, animals were anesthesized with isofluorane (2%) and prone positioned on the microPET Concorde R4 rodent model scanning gantry (Siemens A G, Malvern, Pa.). The scanner has a computer-controlled bed and 10.8-cm transaxial and 8-cm axial fields of view (FOV). […] It has no septa and operates exclusively in the 3-dimensional list mode. A 15 minute static acquisition was performed with the mid thorax in the center of the field of view (FOV), and images reconstructed using a filtered back projection algorithm.

in vivo [5] = details: female, athymic nude, mouse, iv, total radioactivity
Summary of the method: (§1)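 microPET of U87MG-bearing mice after tail-vein injection of about 3.7 MBq ^18F-labelled RGD tracer under isoflurane; 30-min dynamic scan from 1 min p.i. plus 5-min static scans at 1–3 h. Tumour ROIs on decay-corrected coronal images, OSEM reconstruction without attenuation or scatter correction, converted to %ID/g.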

[6] = mouse, in vivo
Protocol: A U87MG tumor mouse was intravenously injected with 3.7 MBq of ^18F-FPRGD2. At 1 h after injection, the mouse was sacrificed, the blood, urine, liver, kidneys, and the U87MG tumor were collected and metabolite analysis was carried out as previously reported (J Nucl Med 2006;47: 113-121 and J Nucl Med 2006;47:1172-1180, each of which is incorporated herein by reference for the corresponding discussion). In brief, blood sample was immediately centrifuged for 5 min at 13,200 rpm. Other tissues were homogenized and then centrifuged for 5 min at 13,200 rpm. The supernatant was each passed through a C18 Sep-Pak cartridge. The urine sample was directly diluted with 1 mL of PBS and passed through a C18 Sep-Pak cartridge. The cartridges were each washed with 2 mL of water and eluted with 2 mL of ACN containing 0.1% TFA. The ACN eluent was concentrated and injected onto the analytical HPLC. The eluent was collected with a fraction collector (0.5 min/fraction) and the radioactivity of each fraction was measured with the γ-counter.
The metabolic stability of ^18F-FPTA-RGD2 was evaluated in an athymic nude mouse bearing a U87MG tumor. Sixty min after intravenous injection of 2 MBq of ^18F-FPTA-RGD2, the mouse was sacrificed and relevant organs were harvested. The blood was collected and immediately centrifuged for 5 min at 13,200 rpm. Liver, kidneys and tumor were homogenized and then centrifuged for 5 min at 13,200 rpm. After removal of the supernatants, the pellets were washed with 1 mL PBS. For each sample, supernatants of both centrifugation steps of blood, liver, and kidneys were combined and passed through C18 Sep-Pak cartridges. The urine sample was directly diluted with 1 mL of PBS and passed through a C18 Sep-Pak cartridge. The cartridges were each washed with 2 mL of water and eluted with 2 mL of ACN containing 0.1% TFA. After evaporation of the solvent, the residues were redissolved in 1 mL PBS and were injected onto the analytical HPLC. The eluent was collected with a fraction collector (0.5 min/fraction) and the radioactivity of each fraction was measured with the γ-counter.

stroke rats (dMCAO) = assay: microPET imaging of dMCAO stroke rats; assay type: in vivo, rat
Excerpt: Anesthesia for Sprague-Dawley rats (290-350 g) was induced by 5% isoflurane and maintained by 2-3% isoflurane. A ventral midline incision was made and the two CCAs were isolated. Snares were placed around the CCAs and the animal was placed on its right side. A 2 cm vertical scalp incision was made midway between the left eye and ear. The temporalis muscle was bisected and a 2 mm burr hole was made at the junction of the zygomatic arch and squamous bone. The distal MCA was exposed and ligated above the rhinal fissure with a 10-0 suture. The CCA snares were tightened to occlude the CCAs for 2 h. In the permanent MCA occlusion model, both CCAs were then released, while the distal MCA remained occluded.

U87MG tumor-bearing mice = assay: in vivo; details: mouse
Summary of the method: as §1

Question: Which log stability constant [1] does the source give for `O=C([O-])CN1CCN(CC(=O)[O-])CCN(CC(=O)[O-])CC1.[Ga+3]` [Ga-NOTA] here?
Answer: Its log stability constant is 30.98.

Question: With `N=C(N)NCCC[C@@H]1NC(=O)[C@H](CCCCNC(=O)CC[C@H](NC(=O)CC[C@H](NC(=O)CN2CCN(CC(=O)O)CCN(CC(=O)O)CCN(CC(=O)O)CC2)C(=O)N[C@@H](CCC(=O)NCCCC[C@@H]2NC(=O)[C@@H](Cc3ccc(O)cc3)NC(=O)[C@H](CC(=O)O)NC(=O)CNC(=O)[C@H](CCCNC(=N)N)NC2=O)C(=O)NCCCC[C@@H]2NC(=O)[C@@H](Cc3ccc(O)cc3)NC(=O)[C@H](CC(=O)O)NC(=O)CNC(=O)[C@H](CCCNC(=N)N)NC2=O)C(=O)NCCCC[C@@H]2NC(=O)[C@@H](Cc3ccc(O)cc3)NC(=O)[C@H](CC(=O)O)NC(=O)CNC(=O)[C@H](CCCNC(=N)N)NC2=O)NC(=O)[C@@H](Cc2ccc(O)cc2)NC(=O)[C@H](CC(=O)O)NC(=O)CNC1=O` [^64Cu-DOTA-RGD tetramer, ^64Cu-DOTA-E{E[c(RGDyK)]2}2, metal not drawn] as the compound, how does the tissue uptake at 20 h (in vivo [2]) read?
Answer: Its tissue uptake at 20 h is 5 ± 0.7 %ID/g.

Question: And the tissue uptake at 20 h (in vivo [3]; 9.3 MBq)?
Answer: The tissue uptake at 20 h was 3.6 ± 0.4 %ID/g.

Question: And the tissue uptake at 1 h (in vivo [3])?
Answer: The tissue uptake at 1 h was 4.4 ± 0.9 %ID/g.

Question: What about the “myocardial tracer uptake after MI induction” value [4] of the same compound?
Answer: The value was “occurs in areas supplied by the ligated coronary artery”.

Question: What about the tissue uptake at 2 h (in vivo [5]; 10 mg/kg, U87MG tumor uptake with blocking) of the same compound?
Answer: Its tissue uptake at 2 h is 2.2 ± 0.1 %ID/g.

Question: What about the tissue uptake at 6 h (in vivo [5]; 9.3 MBq, U87MG tumor uptake) of the same compound?
Answer: The tissue uptake at 6 h was 7.7 ± 1.6 %ID/g.

Question: What about the tissue uptake at 20 h (in vivo [5]; 9.3 MBq, U87MG tumor uptake) of the same compound?
Answer: Its tissue uptake at 20 h is 6.4 ± 0.7 %ID/g.

Question: What about the tissue uptake at 0.5 h (in vivo [5]; U87MG tumor uptake) of the same compound?
Answer: The tissue uptake at 0.5 h was 10.3 ± 1.6 %ID/g.

Question: And the tissue uptake at 1 h (in vivo [5]; U87MG tumor uptake)?
Answer: Its tissue uptake at 1 h is 9.6 ± 1.4 %ID/g.

Question: What about the tissue uptake at 2 h (in vivo [5]; U87MG tumor uptake) of the same compound?
Answer: Its tissue uptake at 2 h is 8.6 ± 1 %ID/g.

Question: With “^18F-FB-mini-PEG-E[c(RGDyK)]2 [^18F-FPRGD2]” as the compound, how does the defluoridation [6] read?
Answer: The defluoridation was “No defluoridation was observed”.

Question: And the “extraction efficiency (radioactivity in the supernatant)” value [6]?
Answer: Its value is 75-95%.

Question: And the “non-retained fraction (activity not trapped on C18 cartridges)” value [6]?
Answer: Its value is “less than 30%”.

Question: And the “microPET signal in wound and stroke lesion” value (stroke rats (dMCAO); day 1 after dMCAO)?
Answer: The value was “Both wound and the lesion were detectable at day 1”.

Question: And the “microPET signal in wound and stroke lesion” value (stroke rats (dMCAO); day 9 after dMCAO)?
Answer: The value was “the signal in the lesion reflecting angiogenesis is remained”.

Question: What about the “myocardial tracer uptake after MI induction” value [4] of the same compound?
Answer: The value was “significant increase in uptake”.

Question: What about the “residence time for kidneys” value (U87MG tumor-bearing mice) of the same compound?
Answer: The value was 0.016 h.
